Results from US20150141411A1, “SUBSTITUTED 3,4-DIHYDRO-2H-PYRIDO[1,2-A]PYRAZINE-1,6-DIONE DERIVATIVES USEFUL FOR THE TREATMENT OF (INTER ALIA) ALZHEIMER'S DISEASE” (Janssen Pharmaceuticals, Inc., priority 2012, published 2015).
Structures can show the parent of a compound that is named as a salt. One block for each compound: values may come before it.

Columns and labels:
γ-secretase [1] = biological target: T1, γ-secretase (Homo sapiens, UniProt P49768); experiment: Screening for γ-secretase-modulating activity: Aβtotal in supernatant of SKNBE2 cells carrying hAPP 695 wild type (Alphalisa); format: cell-based; conditions: SKNBE2 human neuroblastoma cells carrying hAPP 695 wild type, overnight incubation, Aβtotal in cell supernatant
T1 construct: endogenous in cells; host or cells: SKNBE2 human neuroblastoma cells (carrying hAPP 695 wild type as substrate)
Description: (§1) Screening was carried out using SKNBE2 human neuroblastoma cells carrying the hAPP 695—wild type, grown in Dulbecco's Modified Eagle's Medium/Nutrient mixture F-12 (DMEM/NUT-mix F-12) (HAM) provided by Invitrogen (cat no. 10371-029) containing 5% Serum/Fe supplemented with 1% non-essential amino acids, 1-glutamine 2 mM, Hepes 15 mM, penicillin 50 U/ml (units/ml) en streptomycin 50 μg/ml. Cells were grown to near confluency.
(§2) The screening was performed using a modification of the assay as described in Citron et al (1997) Nature Medicine 3: 67. Briefly, cells were plated in a 384-well plate at 10^4 cells/well in Ultraculture (Lonza, BE12-725F) supplemented with 1% glutamine (Invitrogen, 25030-024), 1% non-essential amino acid (NEAA), penicillin 50 U/ml en streptomycin 50 μg/ml in the presence of test compound at different test concentrations. The cell/compound mixture was incubated overnight at 37° C., 5% CO2. The next day the media were assayed by two sandwich immuno-assays, for Aβ42 and Aβ total.
(§3) Aβtotal and Aβ42 concentrations were quantified in the cell supernatant using the Aphalisa technology (Perkin Elmer). Alphalisa is a sandwich assay using biotinylated antibody attached to streptavidin coated donorbeads and antibody conjugated to acceptor beads. In the presence of antigen, the beads come into close proximity. The excitation of the donor beads provokes the release of singlet oxygen molecules that trigger a cascade of energy transfer in the acceptor beads, resulting in light emission. To quantify the amount of Aβ42 in the cell supernatant, monoclonal antibody specific to the C-terminus of Aβ42 (JRF/cAβ42/26) was coupled to the receptor beads and biotinylated antibody specific to the N-terminus of Aβ (JRF/AβN/25) was used to react with the donor beads. To quantify the amount of Aβtotal in the cell supernatant, monoclonal antibody specific to the N-terminus of Aβ (JRF/AβN/25) was coupled to the receptor beads and biotinylated antibody specific to the mid region of Aβ (biotinylated 4G8) was used to react with the donor beads.
(§4) To obtain the values reported in Table 3, the data are calculated as percentage of the maximum amount of amyloid Beta 42 measured in the absence of the test compound. The sigmoidal dose response curves were analyzed using non-linear regression analysis with percentage of the control plotted against the log concentration of the compound. A 4-parameter equation was used to determine the IC50.

γ-secretase [2] = biological target: T1, γ-secretase; experiment: Screening for γ-secretase-modulating activity: Aβ42 in supernatant of SKNBE2 cells carrying hAPP 695 wild type (Alphalisa); format: cell-based; conditions: SKNBE2 human neuroblastoma cells carrying hAPP 695 wild type, overnight incubation, Aβ42 in cell supernatant
Description: as §1, §2, §3, §4

melting point: 208.3 °C
SMILES: Cc1cn(-c2ccc3n(c2=O)C[C@@H](C)N(Cc2cc(C(F)(F)F)ccc2C)C3=O)cn1 (as salt: HCl) [compound 72]

melting point: 185.3 °C
SMILES: Cc1cn(-c2ccc3n(c2=O)C[C@@H](C)N(Cc2cc(N4CCCCC4)cc(C(F)(F)F)c2)C3=O)cn1 (as salt: HCl) [compound 86]

melting point: 116.9 °C
SMILES: Cc1cn(-c2ccc3n(c2=O)C[C@@H](C)N(Cc2cc(OC(C)C)nc(C(F)(F)F)c2)C3=O)cn1 (as salt: HCl) [compound 128]

melting point: 136 °C
SMILES: Cc1cn(-c2ccc3n(c2=O)C[C@@H](C)N(Cc2cc(CC(F)(F)F)cc(C(F)(F)F)c2)C3=O)cn1 (as salt: HCl) [compound 134]

melting point: 195.9 °C
SMILES: Cc1cn(-c2ccc3n(c2=O)C[C@@H](C)N(Cc2cc(F)cc(OC(F)(F)F)c2)C3=O)cn1 (as salt: HCl) [compound 139]

melting point: 115.2 °C
SMILES: Cc1cn(-c2ccc3n(c2=O)C[C@@H](C)N(Cc2cc(OC(F)(F)F)cc(C(F)(F)F)c2)C3=O)cn1 (as salt: HCl) [compound 140]

melting point: 204.5 °C
SMILES: Cc1cn(-c2ccc3n(c2=O)C[C@@H](C)N(Cc2cc(Br)cc(C(F)(F)F)c2)C3=O)cn1 (as salt: HCl) [compound 145]

melting point: 137.5 °C
SMILES: Cc1cn(-c2ccc3n(c2=O)C[C@@H](C)N(Cc2cc(OCC(F)(F)F)cc(C(F)(F)F)c2)C3=O)cn1 (as salt: HCl) [compound 166]

IC50 (γ-secretase [1]): 6610 nM | IC50 (γ-secretase [2]): 10 nM
SMILES: Cc1cn(-c2ccc3n(c2=O)C[C@@H](C)N(Cc2c(C)[nH]c4ccc(C(F)(F)F)cc24)C3=O)cn1 [compound 180]

IC50 (γ-secretase [1]): > 10000 nM | IC50 (γ-secretase [2]): 20 nM
SMILES: CCn1cc(CN2C(=O)c3ccc(-n4cnc(C)c4)c(=O)n3CC2C)c2ccc(C(F)(F)F)cc21 (stereo not shown) [compound 225]

IC50 (γ-secretase [1]): 2190 nM | IC50 (γ-secretase [2]): 10 nM
SMILES: CCn1cc(CN2C(=O)c3ccc(-n4cnc(C)c4)c(=O)n3C[C@H]2C)c2cc(C(F)(F)F)ccc21 [compound 227]

IC50 (γ-secretase [1]): 4000 nM | IC50 (γ-secretase [2]): 6 nM
SMILES: Cc1cn(-c2ccc3n(c2=O)C[C@@H](C)N(Cc2cn(C)c4c(F)cc(C(F)(F)F)cc24)C3=O)cn1 [compound 241]

IC50 (γ-secretase [1]): > 10000 nM | IC50 (γ-secretase [2]): 40 nM
SMILES: Cc1cn(-c2ccc3n(c2=O)C[C@@H](C)N(Cc2c[nH]c4c(C(F)(F)F)cc(F)cc24)C3=O)cn1 [compound 257]

IC50 (γ-secretase [1]): > 10000 nM | IC50 (γ-secretase [2]): 60 nM
SMILES: Cc1cn(-c2ccc3n(c2=O)C[C@@H](C)N(Cc2cn(C)c4c(C(F)(F)F)cc(F)cc24)C3=O)cn1 [compound 261]

Further lines, the compound ahead of its results:

SMILES: Cc1cn(-c2ccc3n(c2=O)C[C@@H](C)N(Cc2cccc(Cl)c2)C3=O)cn1 (as salt: HCl) [compound 24]
melting point: 184.6 °C

SMILES: Cc1cn(-c2ccc3n(c2=O)C[C@@H](C)N(Cc2cc(N4CCC(C)CC4)ccc2Cl)C3=O)cn1 (as salt: HCl) [compound 80]
melting point: 235.1 °C

SMILES: Cc1cn(-c2ccc3n(c2=O)C[C@@H](C)N(Cc2cc(N4CCC(C(F)(F)F)CC4)ccc2Cl)C3=O)cn1 (as salt: HCl) [compound 81]
melting point: 160.6 °C

SMILES: Cc1cn(-c2ccc3n(c2=O)C[C@@H](C)N(Cc2cc(N4CCCC4)ccc2Cl)C3=O)cn1 (as salt: HCl) [compound 82]
melting point: 233.6 °C

SMILES: Cc1cn(-c2ccc3n(c2=O)C[C@@H](C)N(Cc2ccc(C)c(-n4cccn4)c2)C3=O)cn1 (as salt: HCl) [compound 114]
melting point: 126.9 °C

SMILES: Cc1cn(-c2ccc3n(c2=O)C[C@@H](C)N(Cc2cc(OC(C)C)c(Cl)cc2F)C3=O)cn1 (as salt: HCl) [compound 163]
melting point: 103.1 °C

SMILES: Cc1cn(-c2ccc3n(c2=O)C[C@@H](C)N(Cc2ccc(C(F)(F)F)c(N4CCCCC4)c2)C3=O)cn1 (as salt: HCl) [compound 171]
melting point: 130.6 °C

SMILES: Cc1cn(-c2ccc3n(c2=O)C[C@@H](C)N(CCc2cccc(Cl)c2Cl)C3=O)cn1 (as salt: HCl) [compound 231]
melting point: 218 °C

SMILES: Cc1cn(-c2ccc3n(c2=O)C[C@@H](C)N(Cc2cn(C)c4ccc(OC(F)(F)F)cc24)C3=O)cn1 (as salt: HCl) [compound 253]
melting point: 190 °C

SMILES: Cc1cn(-c2ccc3n(c2=O)CC(C)N(Cc2cn(C)c4cc(Br)ccc24)C3=O)cn1 (stereo not shown) [compound 177]
IC50 (γ-secretase [1]): > 10000 nM | IC50 (γ-secretase [2]): 40 nM

SMILES: Cc1cn(-c2ccc3n(c2=O)CC(C)N(Cc2c[nH]c4cc(Cl)ccc24)C3=O)cn1 (stereo not shown) [compound 179]
IC50 (γ-secretase [1]): > 10000 nM | IC50 (γ-secretase [2]): 70 nM

SMILES: Cc1cn(-c2ccc3n(c2=O)CC(C)N(Cc2c(C)n(C)c4ccc(C(F)(F)F)cc24)C3=O)cn1 (stereo not shown) [compound 181]
IC50 (γ-secretase [1]): 4570 nM | IC50 (γ-secretase [2]): 10 nM

SMILES: CCn1c(C)c(CN2C(=O)c3ccc(-n4cnc(C)c4)c(=O)n3C[C@H]2C)c2cc(C(F)(F)F)ccc21 [compound 182]
IC50 (γ-secretase [1]): 2510 nM | IC50 (γ-secretase [2]): 10 nM

SMILES: Cc1cn(-c2ccc3n(c2=O)C[C@@H](C)N(Cc2c[nH]c4c(I)cccc24)C3=O)cn1 [compound 197]
IC50 (γ-secretase [1]): > 10000 nM | IC50 (γ-secretase [2]): 60 nM

SMILES: Cc1cn(-c2ccc3n(c2=O)CC(C)N(Cc2cn(-c4ccccc4)c4cc(Br)ccc24)C3=O)cn1 (stereo not shown) [compound 199]
IC50 (γ-secretase [1]): 9780 nM | IC50 (γ-secretase [2]): 20 nM

SMILES: Cc1cn(-c2ccc3n(c2=O)CC(C)N(C2CCc4ccc(C(F)(F)F)cc42)C3=O)cn1 (stereo not shown) [compound 204]
IC50 (γ-secretase [1]): > 10000 nM | IC50 (γ-secretase [2]): 120 nM

SMILES: Cc1cn(-c2ccc3n(c2=O)CC(C)N(C2CCc4ccc(C(F)(F)F)cc42)C3=O)cn1 (stereo not shown) [compound 205]
IC50 (γ-secretase [1]): > 10000 nM | IC50 (γ-secretase [2]): 240 nM

SMILES: COc1ccc2c(c1)c(CN1C(=O)c3ccc(-n4cnc(C)c4)c(=O)n3CC1C)cn2C(C)C (stereo not shown) [compound 222]
IC50 (γ-secretase [1]): > 10000 nM | IC50 (γ-secretase [2]): 60 nM

SMILES: Cc1cn(-c2ccc3n(c2=O)C[C@@H](C)N(CCc2cccc(Cl)c2Cl)C3=O)cn1 [compound 231]
IC50 (γ-secretase [1]): > 10000 nM | IC50 (γ-secretase [2]): 260 nM

SMILES: Cc1cn(-c2ccc3n(c2=O)C[C@@H](C)N(Cc2cn(C)c4cc(F)c(C(F)(F)F)cc24)C3=O)cn1 [compound 238]
IC50 (γ-secretase [1]): 4000 nM | IC50 (γ-secretase [2]): 9 nM

SMILES: Cc1cn(-c2ccc3n(c2=O)C[C@@H](C)N(Cc2cn(C)c4cc(F)ccc24)C3=O)cn1 [compound 242]
IC50 (γ-secretase [1]): > 10000 nM | IC50 (γ-secretase [2]): 260 nM

SMILES: Cc1cn(-c2ccc3n(c2=O)C[C@@H](C)N(Cc2cn(C)c4ccc(C5CC5)cc24)C3=O)cn1 [compound 246]
IC50 (γ-secretase [1]): 7000 nM | IC50 (γ-secretase [2]): 20 nM

SMILES: CCn1cc(CN2C(=O)c3ccc(-n4cnc(C)c4)c(=O)n3C[C@H]2C)c2cc(C3CC3)ccc21 [compound 247]
IC50 (γ-secretase [1]): 6000 nM | IC50 (γ-secretase [2]): 10 nM

SMILES: CCn1cc(CN2C(=O)c3ccc(-n4cnc(C)c4)c(=O)n3C[C@H]2C)c2cc(C)ccc21 [compound 250]
IC50 (γ-secretase [1]): > 10000 nM | IC50 (γ-secretase [2]): 50 nM

SMILES: Cc1cn(-c2ccc3n(c2=O)C[C@@H](C)N(Cc2c[nH]c4ccc(OC(F)(F)F)cc24)C3=O)cn1 [compound 252]
IC50 (γ-secretase [1]): 5000 nM | IC50 (γ-secretase [2]): 10 nM

SMILES: Cc1cn(-c2ccc3n(c2=O)C[C@@H](C)N(Cc2cn(C)c4ccc(OC(F)(F)F)cc24)C3=O)cn1 [compound 253]
IC50 (γ-secretase [1]): 5000 nM | IC50 (γ-secretase [2]): 9 nM

SMILES: Cc1cn(-c2ccc3n(c2=O)C[C@@H](C)N(Cc2cn(C)c4cc(C(F)(F)F)c(F)cc24)C3=O)cn1 [compound 258]
IC50 (γ-secretase [1]): 9000 nM | IC50 (γ-secretase [2]): 20 nM

SMILES: Cc1ccc2c(c1)c(CN1C(=O)c3ccc(-n4cnc(C)c4)c(=O)n3C[C@H]1C)cn2CC(F)(F)F [compound 262]
IC50 (γ-secretase [1]): > 10000 nM | IC50 (γ-secretase [2]): 20 nM
